# Reference: patent publication US20220073496A1, “NOVEL QUINOLINE DERIVATIVE INHIBITOR” (Nanjing Transthera Biosciences Co., Ltd., priority 2018, published 2022)
# Key:
# TrkB (h) = target: T1, TrkB (h) (Homo sapiens, UniProt Q16620); test: Enzymatic activity test, TrkB (h); type: biochemical; settings: 10 μM [γ-33P]-ATP, 40 minutes, room temperature
# T1 construct: purchased
# Method: (§1) Assay 4: Enzymatic Activity Test of the Compound of the Present Invention
# (§2) Test substances: the compounds of the present invention, wherein the structures and preparations thereof were as described above.
# (§3) Preparation of the Compound Stock Solution
# (§4) The compound was dissolved in 100% DMSO to prepare a stock solution with a maximum concentration of 500 μM.
# (§5) Preparation of the Compound Working Solution
# (§6) The compound stock solution was diluted to final concentrations of 500, 150, 50, 15. 5, 1.5, 0.5, 0.15 and 0.05 μM to become the compound working solutions (50×).
# (§7) Preparation of Different Enzyme Reaction Solutions
# The TrkB (h) enzyme was dissolved in 8 mM MOPS (pH 7.0), 0.2 mM EDTA, and 0.1 mg/mL poly(Glu, Tyr) 4:1 to prepare an enzyme solution having a final concentration of 3.1 nM. The enzymatic reaction was activated by using 10 mM magnesium acetate and 10 μM [γ-^33P]-ATP to form an Mg/ATP mixed solution,
# (§8) In a 384-well plate, the compound working solution was added to final concentrations of 10000, 3000, 1000, 300, 100, 30, 10, 3, and 1 nM. Then different enzyme reaction solutions prepared according to the above conditions were added. The incubation was carried out for 40 minutes at room temperature. The test was terminated by the addition of a 0.5% phosphoric acid solution. 10 μL of the reaction solution was taken and dropped to the P30 filter paper. The filter paper was washed 4 times with 0.425% phosphoric acid solution and once with methanol, and then placed on a scintillation counter. The […] IC50 values were calculated using GraphPad 5.0 software.
# Axl (h) = target: T2, Axl (h) (Homo sapiens, UniProt P30530); test: Enzymatic activity test, Axl (h); type: biochemical; settings: 10 μM [γ-33P]-ATP, 40 minutes, room temperature
# T2 construct: purchased
# T2 sequence (P30530 26-894): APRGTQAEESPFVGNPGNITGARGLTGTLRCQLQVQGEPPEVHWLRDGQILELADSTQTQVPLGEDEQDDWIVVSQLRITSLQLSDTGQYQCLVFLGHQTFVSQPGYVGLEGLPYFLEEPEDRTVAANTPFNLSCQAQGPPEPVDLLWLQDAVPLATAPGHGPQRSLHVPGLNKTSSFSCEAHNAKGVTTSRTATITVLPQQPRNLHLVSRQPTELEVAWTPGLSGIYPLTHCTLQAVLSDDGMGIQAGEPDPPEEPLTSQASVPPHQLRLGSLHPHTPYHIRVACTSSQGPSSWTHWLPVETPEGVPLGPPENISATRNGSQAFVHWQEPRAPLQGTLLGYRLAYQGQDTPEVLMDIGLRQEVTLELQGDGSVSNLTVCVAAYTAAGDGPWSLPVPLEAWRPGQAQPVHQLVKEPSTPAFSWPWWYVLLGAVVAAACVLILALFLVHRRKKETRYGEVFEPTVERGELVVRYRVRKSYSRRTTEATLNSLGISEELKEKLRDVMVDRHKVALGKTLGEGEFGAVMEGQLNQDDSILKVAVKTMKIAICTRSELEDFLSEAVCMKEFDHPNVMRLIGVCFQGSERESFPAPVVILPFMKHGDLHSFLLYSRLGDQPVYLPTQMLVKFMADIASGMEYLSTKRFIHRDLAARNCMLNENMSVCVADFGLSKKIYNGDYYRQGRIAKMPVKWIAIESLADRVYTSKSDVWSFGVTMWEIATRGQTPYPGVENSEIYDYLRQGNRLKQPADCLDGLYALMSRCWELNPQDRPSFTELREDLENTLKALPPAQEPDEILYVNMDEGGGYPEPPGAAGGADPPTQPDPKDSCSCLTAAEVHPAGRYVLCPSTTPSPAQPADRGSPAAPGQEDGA
# Method: Assay 3: Enzymatic Activity Test of the Compounds of the Present Invention
# as §2
# (1) Preparation of the Compound Stock Solution
# as §4
# (2) Preparation of the Compound Working Solution
# The compound stock solution was diluted to final concentrations of 500, 150, 50, 15, 5, 1.5, 0.5, 0.15 and 0.05 μM to become the compound working solutions (50×).
# (3) Preparation of Different Enzyme Reaction Solutions
# The Axl (h) enzyme was dissolved in 8 mM MOPS (pH 7.0), 0.2 mM EDTA, and 250 μM KKSRGDYMTMQIG to prepare an enzyme solution having a final concentration of 1.7 nM. The enzymatic reaction was activated by using 10 mM magnesium acetate and 10 μM [γ-^33P]-ATP to form an Mg/ATP mixed solution.
# as §8
# TrkA (h) = target: T3, TrkA (h) (Homo sapiens, UniProt P04629); test: Enzymatic activity test, TrkA (h); type: biochemical; settings: 10 μM [γ-33P]-ATP, 40 minutes, room temperature
# T3 construct: purchased
# Method: as §1, §2, §3, §4, §5, §6, §7
# The TrkA (h) enzyme was dissolved in 8 mM MOPS (pH 7.0), 0.2 mM EDTA, and 250 μM KKKSPGEYVNIEFG to prepare an enzyme solution having a final concentration of 1.7 nM. The enzymatic reaction was activated by using 10 mM magnesium acetate and 10 μM [γ-^33P]-ATP to form an Mg/ATP mixed solution.
# as §8
# Ba/F3 LMNA-NTRK1 cells = target: T4, Ba/F3 LMNA-NTRK1 cells (Homo sapiens, UniProt P04629); test: Cell viability test (CTG), Ba/F3 LMNA-NTRK1; type: cell-based; settings: NTRK1 wild type cell, 72 hours, read-out: IC50 Ba/F3 LMNA-NTRK1
# T4 construct: fused on or other part: P02545 (Prelamin-A/C)
# Method: (§9) Assay 8: Cell viability test of the compounds of the present invention
# Ba/F3 LMNA-NTRK1 is an NTRK1 wild type cell;
# (§10) Test substances: the compounds of the present invention, wherein the structures thereof were as described above.
# (§11) Test instrument: SpectraMax multi-label microplate reader.
# (§12) Each cell was inoculated in a 96-well plate and adherent cells were cultivated overnight. Different concentrations of the compounds (9 dose groups, 3.16 times DMSO serial dilution) were added to give the final concentration of 0.1-1000 nM, and the final DMSO content was 1‰. The negative control wells contained the medium containing 1‰ DMSO. The cells were incubated at 37° C. in a condition of 5% CO2 and 95% humidity for 72 hours for use. An equal volume of CTG reagent was added to each well, and the cells were lysed by shaking for 5 minutes on an orbital shaker, and incubated for 20 minutes at room temperature to stabilize the cold light signal. The cold light signal was read with a microplate reader. Data were analyzed using GraphPad Prism 5.0 software, and data were fitted using nonlinear S-curve regression to derive a dose-response curve and thereby calculate IC50 values.
# [1] = target: T5, Ba/F3 LMNA-NTRK1-V573M cells (Homo sapiens, UniProt P04629, V573M, cells depend on it); test: Cell viability test (CTG), Ba/F3 LMNA-NTRK1-V573M; type: cell-based; settings: NTRK1 gene mutant cell, 72 hours, read-out: IC50 Ba/F3 LMNA-NTRK1-V573M
# T5 construct: Ba/F3 LMNA-NTRK1 G667C and Ba/F3 LMNA-NTRK1-V573M are NTRK1 gene mutant cells; fused on or other part: P02545 (Prelamin-A/C)
# Text: as §9
# Ba/F3 LMNA-NTRK1 G667C and Ba/F3 LMNA-NTRK1-V573M are NTRK1 gene mutant cells.
# as §10, §11, §12
# T5 sequence (P04629 whole entry V573M, the tested form may be a part): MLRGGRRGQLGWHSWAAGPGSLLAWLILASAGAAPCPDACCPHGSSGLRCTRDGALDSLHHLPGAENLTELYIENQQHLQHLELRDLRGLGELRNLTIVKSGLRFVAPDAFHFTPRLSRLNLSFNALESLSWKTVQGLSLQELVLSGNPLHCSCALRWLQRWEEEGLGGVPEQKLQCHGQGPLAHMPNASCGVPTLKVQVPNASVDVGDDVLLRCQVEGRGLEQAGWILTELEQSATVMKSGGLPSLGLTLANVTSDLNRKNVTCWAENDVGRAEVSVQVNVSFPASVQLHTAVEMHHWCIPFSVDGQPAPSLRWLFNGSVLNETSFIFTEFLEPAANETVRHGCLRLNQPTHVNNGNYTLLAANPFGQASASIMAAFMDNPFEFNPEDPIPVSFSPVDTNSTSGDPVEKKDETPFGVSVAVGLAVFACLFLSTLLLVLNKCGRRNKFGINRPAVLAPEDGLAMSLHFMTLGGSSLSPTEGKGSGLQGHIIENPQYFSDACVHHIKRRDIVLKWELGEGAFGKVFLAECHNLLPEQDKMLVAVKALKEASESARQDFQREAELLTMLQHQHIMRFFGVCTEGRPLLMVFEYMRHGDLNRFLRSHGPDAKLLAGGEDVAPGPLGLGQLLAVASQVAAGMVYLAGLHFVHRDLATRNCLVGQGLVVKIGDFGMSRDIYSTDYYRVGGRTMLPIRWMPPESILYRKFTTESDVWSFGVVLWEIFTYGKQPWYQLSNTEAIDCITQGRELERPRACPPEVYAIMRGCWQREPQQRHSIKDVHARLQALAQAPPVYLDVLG
# T3 sequence (P04629 33-796): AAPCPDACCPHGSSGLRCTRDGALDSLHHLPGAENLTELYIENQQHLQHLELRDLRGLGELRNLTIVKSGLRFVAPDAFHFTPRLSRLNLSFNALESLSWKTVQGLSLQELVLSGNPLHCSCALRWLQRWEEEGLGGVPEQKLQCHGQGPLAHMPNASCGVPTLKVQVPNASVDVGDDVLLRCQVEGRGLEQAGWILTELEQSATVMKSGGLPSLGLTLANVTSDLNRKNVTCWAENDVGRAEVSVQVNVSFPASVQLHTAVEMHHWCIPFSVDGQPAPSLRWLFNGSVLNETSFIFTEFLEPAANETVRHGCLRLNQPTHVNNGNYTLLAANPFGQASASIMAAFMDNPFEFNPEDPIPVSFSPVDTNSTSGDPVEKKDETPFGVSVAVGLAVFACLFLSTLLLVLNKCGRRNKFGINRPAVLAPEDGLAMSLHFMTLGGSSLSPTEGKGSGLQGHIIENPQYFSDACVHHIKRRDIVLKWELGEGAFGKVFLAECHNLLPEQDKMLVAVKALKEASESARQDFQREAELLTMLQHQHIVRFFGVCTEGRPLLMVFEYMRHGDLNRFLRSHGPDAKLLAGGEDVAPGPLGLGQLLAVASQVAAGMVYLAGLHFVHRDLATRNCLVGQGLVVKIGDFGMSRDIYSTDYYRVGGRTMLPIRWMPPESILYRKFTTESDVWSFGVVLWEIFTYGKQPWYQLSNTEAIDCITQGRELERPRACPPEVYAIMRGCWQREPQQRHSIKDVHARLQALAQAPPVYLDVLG
# T4 sequence (P04629 whole entry, change not shown, the tested form may be a part): as the sequence (P04629 whole entry V573M, the tested form may be a part) above, with M573V counted along it
# T1 sequence (Q16620 32-822): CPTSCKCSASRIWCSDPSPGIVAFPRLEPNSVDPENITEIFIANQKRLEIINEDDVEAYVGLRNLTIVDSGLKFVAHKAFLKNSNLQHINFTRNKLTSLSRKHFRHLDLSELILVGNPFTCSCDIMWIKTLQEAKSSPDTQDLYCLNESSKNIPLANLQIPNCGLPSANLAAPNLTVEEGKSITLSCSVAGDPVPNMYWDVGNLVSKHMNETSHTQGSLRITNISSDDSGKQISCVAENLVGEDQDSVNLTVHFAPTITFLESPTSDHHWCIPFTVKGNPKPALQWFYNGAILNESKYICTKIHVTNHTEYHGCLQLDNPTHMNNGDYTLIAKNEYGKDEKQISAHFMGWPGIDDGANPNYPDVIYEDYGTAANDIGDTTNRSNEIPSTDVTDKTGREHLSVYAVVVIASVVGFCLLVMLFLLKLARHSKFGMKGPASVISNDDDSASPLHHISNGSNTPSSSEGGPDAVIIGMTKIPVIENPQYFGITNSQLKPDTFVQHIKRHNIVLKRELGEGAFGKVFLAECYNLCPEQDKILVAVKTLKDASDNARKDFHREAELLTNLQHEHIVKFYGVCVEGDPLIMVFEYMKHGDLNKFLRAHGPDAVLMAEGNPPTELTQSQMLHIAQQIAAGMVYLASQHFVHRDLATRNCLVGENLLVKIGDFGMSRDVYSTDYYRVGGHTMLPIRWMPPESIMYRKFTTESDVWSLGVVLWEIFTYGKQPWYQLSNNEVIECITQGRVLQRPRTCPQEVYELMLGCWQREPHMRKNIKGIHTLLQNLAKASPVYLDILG
Structure (SMILES),IC50 (TrkB (h)) [nM],IC50 (Axl (h)) [nM],IC50 (TrkA (h)) [nM],GI50 (Ba/F3 LMNA-NTRK1 cells) [nM],GI50 [1] [nM]
"COc1cc2nccc(Oc3ncc(NC(=O)c4cn(C(C)C)nc(-c5ccc(F)cc5)c4=O)cn3)c2cc1OC [Compound 40, N-(2-((6,7-dimethoxyquinolin-4-yl)oxy)pyrimidine-5-yl)-6-(4-fluorophenyl)-2-isopropyl-5-oxo-2,5-dihydropyridazine-4-carboxamide]",6,4,7,52.1,9.1
"COc1cc2nccc(Oc3ncc(NC(=O)c4nn(C(C)C)cc(-c5ccc(F)cc5)c4=O)cn3)c2cc1OC [Compound 34, N-(2-((6,7-dimethoxyquinolin-4-yl)oxy)pyrimidine-5-yl)-5-para-fluorophenyl-1-isopropyl-4-oxo-1,4-dihydropyridazine-3-carboxamide]",3,5,5,14.3,2.7
"COc1cc2nccc(Oc3ccc(NC(=O)c4cn(C(C)C)cc(-c5ccc(C)cc5)c4=O)nc3)c2cc1OC [Compound 1, N-(5-((6,7-dimethoxyquinolin-4-yl)oxy)pyridin-2-yl)-1-isopropyl-4-oxo-5-p-tolyl-1,4-dihydropyridin-3-carboxamide]",–,17,–,–,–
"COc1cc2nccc(Oc3ccc(NC(=O)c4cn(C(C)C)cc(-c5ccc(F)cc5)c4=O)nc3)c2cc1OC [Compound 14, N-(5-((6,7-dimethoxyquinolin-4-yl)oxy)pyridin-2-yl)-5-(4-fluorophenyl)-1-isopropyl-4-oxo-1,4-dihydropyridin-3-carboxamide]",–,8,–,–,–
"COc1cc2nccc(Oc3cnc(NC(=O)c4cn(C5CC5)cc(-c5ccc(F)cc5)c4=O)nc3)c2cc1OC [Compound 32, 1-cyclopropyl-N-(5-((6,7-dimethoxyquinolin-4-yl)oxy)pyrimidine-2-yl)-5-(4-fluorophenyl)-4-oxo-1,4-dihydropyridin-3-carboxamide]",–,5,–,–,–
"COc1cc2nccc(Oc3ccc(NC(=O)c4cn(C5CC5)cc(-c5ccc(F)cc5)c4=O)nc3)c2cc1OC [Compound 30, N-(5-((6,7-dimethoxyquinolin-4-yl)oxy)pyridin-2-yl)-1-cyclopropyl-4-oxo-5-para-fluorophenyl-1,4-hydropyridin-3-carboxamide]",–,7,–,–,–
"COc1cc2nccc(Oc3ccc(NC(=O)c4nn(C(C)C)cc(-c5ccc(F)cc5)c4=O)cn3)c2cc1OC [Compound 29, N-(6-((6,7-dimethoxyquinolin-4-yl)oxy)pyridin-3-yl)-1-isopropyl-4-oxo-5-para-fluorophenyl-1,4-dihydropyridazine-3-carboxamide]",–,5,–,–,–
"COc1cc2nccc(Oc3ccc(NC(=O)c4cn(C(C)C)nc(-c5ccc(F)cc5)c4=O)nc3)c2cc1OC [Compound 41, N-(5-((6,7-dimethoxyquinolin-4-yl)oxy)pyridin-2-yl)-6-(4-fluorophenyl)-2-isopropyl-5-oxo-2,5-dihydropyridazine-4-carboxamide]",–,12,5,–,–
"COc1cc2nccc(Oc3cnc(NC(=O)c4cn(C(C)C)cc(-c5ccc(F)cc5)c4=O)nc3)c2cc1OC [Compound 20, N-(5-((6,7-dimethoxyquinolin-4-y)oxy)pyrimidine-2-yl)-5-(4-fluorophenyl)-1-isopropyl-4-oxo-1,4-dihydropyridin-3-carboxamide]",–,17,–,–,–
"COc1cc2nccc(Oc3cnc(NC(=O)c4nn(C(C)C)cc(-c5ccc(F)cc5)c4=O)nc3)c2cc1OC [Compound 16, N-(5-((6,7-dimethoxyquinolin-4-yl)oxy)pyrimidine-2-yl)-5-(4-fluorophenyl)-1-isopropyl-4-oxo-1,4-dihydropyridazine-3-carboxamide]",–,13,–,–,–

# More lines, in order of falling IC50 (Axl (h)), values ahead:
IC50 (TrkB (h)) [nM],IC50 (Axl (h)) [nM],IC50 (TrkA (h)) [nM],Structure (SMILES),GI50 (Ba/F3 LMNA-NTRK1 cells) [nM],GI50 [1] [nM]
17,4,18,"COc1cc2nccc(Oc3cnc(NC(=O)c4cn(C(C)C)nc(-c5ccc(F)cc5)c4=O)nc3)c2cc1OC [Compound 39, N-(5-((6,7-dimethoxyquinolin-4-yl)oxy)pyrimidine-2-yl)-6-(4-fluorophenyl)-2-isopropyl-5-oxo-2,5-dihydropyridazine-4-carboxamide]",42.4,5
4,3,2,COc1cc2nccc(Oc3ccc(NC(=O)c4nn(C5CC5)cc(-c5ccc(F)cc5)c4=O)cn3)c2cc1OC [Compound 36],–,–
11,3,11,"COc1cc2nccc(Oc3ccc(NC(=O)c4cn(C(C)C)nc(-c5ccc(F)cc5)c4=O)cn3)c2cc1OC [Compound 38, N-(6-((6,7-dimethoxyquinolin-4-yl)oxy)pyridin-3-yl)-6-para-fluorophenyl-2-isopropyl-5-oxo-2,5-dihydropyridazine-4-carboxamide]",55.1,7.5
8,2,13,COc1cc2nccc(Oc3cnc(NC(=O)c4nn(C5CC5)cc(-c5ccc(F)cc5)c4=O)nc3)c2cc1OC [Compound 33],73,6
6,2,7,"COc1cc2nccc(Oc3ncc(NC(=O)c4nn(C5CC5)cc(-c5ccc(F)cc5)c4=O)cn3)c2cc1OC [Compound 37, 1-cyclopropyl-N-(2-((6,7-dimethoxyquinolin-4-yl)oxy)pyrimidine-5-yl)-5-para-fluorophenyl-4-oxo-1,4-dihydropyridazine-3-carboxamide]",–,–
